Test results from patent US10322112B2, “Compound combinations for attenuation of bacterial virulence” (priority 2016, dated 2019).

Experiments:
[1] = molecular target: T1, LasR (Pseudomonas aeruginosa, UniProt P25084); experiment: E. coli reporter gene primary antagonism assay, LasR; format: cell-based; settings: compounds at 100 mm against 2 nm OdDHL; E. coli beta-galactosidase reporter strain JLD271/pJN105L/pSC11; untreated culture = 100%; negative values indicate receptor agonism; error ±10%
T1 construct: expressed in transfected cells; host or cells: E. coli JLD271
Procedure: (§1) Percent agonism of a given non-native inducer in a given bacterium and QS system receptor is measured with resepct to the maximum level of agonism (activation) by the native ligand of that receptor in the given bacterium. Percent antagonism is measured in competitive assays. The QS system of interest is activated to 100% with added or endogenous native ligand and the % antagonism of the non-native inducer is assessed with respect to 100% activation by the native inducer. The native ligand which induces LasR is OdDHL, which induces RhlR is BHL and which induces PqsR is PQS. As described herein and in cited references, assays for assessment of % agonism or % atangonism may be performed in E. coli systems (heterologous) or in the bacterium of interest, e.g., Pseudomonas. Dependent upon the assay system employed native ligand may be endogenously present or it may be exogenously supplied to the assay system. […] In antagonism assays using the native strains with functional QS systems, e.g., those of P. aeruginosa, endogenous native ligand is made in the system, so no native ligand is added. In native strains having one or more non-functional QS systems (mutant strains), e.g., P. aeruginosa mutants with non-functional QS systems, native ligand is added at about 10-100× the EC50 of the native ligand. In the agonism assay, native ligand is added as a control. Details of the assays are provided herein in Example 9 and in references cited in Example 9.

[2] = molecular target: T2, RhlR (Pseudomonas aeruginosa, UniProt P54292); experiment: E. coli reporter gene antagonism assay, RhlR; format: cell-based; settings: compounds at 100 mm in the presence of 10 mm BHL; untreated culture = 100%; error ±10%; selected data reproduced from Welsh et al. 2015
T2 construct: expressed in transfected cells; host or cells: E. coli JLD271
Procedure: as §1

[3] = molecular target: T3, QscR (Pseudomonas aeruginosa, UniProt G3XD77); format: cell-based; set-up: expressed in transfected cells; host or cells: E. coli JLD271; settings: compounds at 100 mm against 15 nm OdDHL; E. coli reporter strain JLD271/pJN105Q/pSC11-Q; untreated culture = 100%; error ±10%
Excerpt: (§2) Construction of pSC11-Q: A 348 bp fragment spanning the upstream region of PA1897 (¢304 to +43 relative to the PA1897 translationalstart codon) was amplified from plasmid pJL101*by using primers 5′-GAATAT GGATCC TCTCTC CGCAGA TACCTG-3′ (BamHI site underlined) SEQ ID NO:5 and 5′-GCTATT GAATTC TGAAGA TGAATA GCGCCAC-3′ (EcoRI site underlined) SEQ ID NO:6. The PCR-generated fragment was digested with EcoRI and BamHI and subsequently ligated into EcoRI/BamHI-digested pPROBE-KT to generate pPROBE-KQ2. […] CGCC-3′ (BamHI site underlined) SEQ ID NO:8. The PCR-generated fragment was digested with SalI and BamHI and subsequently ligated into SalI/BamHI-digested pSC11 to generate pSC11-Q.
(§3) E. coli reporter gene assays: Primary assays for RhlR, LasR, and QscR activity in E. coli JLD271 reporter (beta-galactosidase) strains were performed as reported by Welsh et al. 2015, with the following modifications:
(§4) For all primary and dose-response antagonism assays, the concentration of native ligand utilized was approximately equal to its EC50 value in each bacterial reporter strain. For RhlR, LasR, and QscR primary antagonism assays, synthetic ligand (100 mm) was screened against BHL (10 mm), OdDHL (2 nm), and OdDHL (15 nm), respectively. For RhlR, LasR, and QscR primary agonism assays, synthetic compound (100 mm) was screened alongside and compared to the natural ligand (900 mm BHL or 100 mm OdDHL) for the receptor. As part of the beta-galactosidase assay protocol, plates to which CPRG substrate had been added were incubated at either 25° C. (LasR assay) or 30° C. (RhlR and QscR assays) until positive control wells developed a deep red color (10 min for LasR, 30 min for RhlR, and 60 min for QscR). Dose-response reporter gene assays were performed according to these protocols by using varying concentrations of compound.

[4] = molecular target: T1, LasR; experiment: E. coli reporter gene primary agonism assay, LasR; format: cell-based; settings: compounds at 100 mm; E. coli reporter strain JLD271/pJN105L/pSC11; 100 mm OdDHL = 100%; error ±10%
Procedure: as §1

[5] = molecular target: T2, RhlR; experiment: E. coli reporter gene primary agonism assay, RhlR; format: cell-based; settings: compounds at 100 mm; 900 mm BHL = 100%; error ±10%; selected data reproduced from Welsh et al., 2015
Procedure: as §1

[6] = molecular target: T3, QscR; settings: compounds at 100 mm; E. coli reporter strain JLD271/pJN105Q/pSC11-Q; 100 mm OdDHL = 100%; error ±10%
Excerpt: as §2, §3, §4

T3 sequence (G3XD77 entry or part of it): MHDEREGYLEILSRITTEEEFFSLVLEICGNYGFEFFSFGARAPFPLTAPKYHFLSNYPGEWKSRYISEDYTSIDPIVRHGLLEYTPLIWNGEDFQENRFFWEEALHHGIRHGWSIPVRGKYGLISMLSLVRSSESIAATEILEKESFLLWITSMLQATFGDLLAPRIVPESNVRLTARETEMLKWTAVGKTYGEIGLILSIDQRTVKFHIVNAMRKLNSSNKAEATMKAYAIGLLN
T2 sequence (P54292 whole entry): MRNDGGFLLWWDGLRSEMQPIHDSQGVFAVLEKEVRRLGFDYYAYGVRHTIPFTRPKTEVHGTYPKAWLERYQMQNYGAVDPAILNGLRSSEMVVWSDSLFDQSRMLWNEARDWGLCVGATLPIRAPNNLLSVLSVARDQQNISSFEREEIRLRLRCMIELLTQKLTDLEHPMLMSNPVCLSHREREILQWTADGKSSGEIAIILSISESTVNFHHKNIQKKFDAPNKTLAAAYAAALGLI
T1 sequence (P25084 whole entry): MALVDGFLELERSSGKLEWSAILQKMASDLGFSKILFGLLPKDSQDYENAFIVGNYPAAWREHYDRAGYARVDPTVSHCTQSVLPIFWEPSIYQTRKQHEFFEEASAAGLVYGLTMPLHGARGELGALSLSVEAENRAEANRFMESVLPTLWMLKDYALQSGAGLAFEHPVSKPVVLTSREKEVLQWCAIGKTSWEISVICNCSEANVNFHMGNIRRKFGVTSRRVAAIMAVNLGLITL

O=C(COc1ccc(OC(F)(F)F)cc1)N[C@H]1CCOC1=O [D15]
Inhibition [%] LasR [1]: −80% | Inhibition [%] RhlR [2]: 61% | Inhibition [%] QsCR [3]: 4%

O=C(Cc1ccc([N+](=O)[O-])cc1)N[C@H]1CCOC1=O [C13]
Inhibition [%] LasR [1]: 91% | Inhibition [%] RhlR [2]: 60% | Inhibition [%] QsCR [3]: 14%

O=C(Cc1ccc(Cl)c(Cl)c1)N[C@H]1CCOC1=O [E11]
Inhibition [%] LasR [1]: 28% | Inhibition [%] RhlR [2]: 62% | Inhibition [%] QsCR [3]: 15%

COc1ccc(OCC(=O)N[C@H]2CCOC2=O)cc1 [E17]
Inhibition [%] LasR [1]: 83% | Inhibition [%] RhlR [2]: 66% | Inhibition [%] QsCR [3]: 36%

COc1cccc(CC(=O)N[C@H]2CCOC2=O)c1 [E2]
Activation [%] LasR [4]: 23% | Activation [%] RhlR [5]: 86% | Activation [%] QscR [6]: 26%

O=C(COc1ccc(C(F)(F)F)cc1)N[C@H]1CCOC1=O [E23]
Inhibition [%] LasR [1]: −49% | Inhibition [%] RhlR [2]: 64% | Inhibition [%] QsCR [3]: 22%

O=C(CCCC1CCCCC1)N[C@H]1CCOC1=O [S6]
Inhibition [%] LasR [1]: 56% | Inhibition [%] RhlR [2]: 69% | Inhibition [%] QsCR [3]: 34%

N#Cc1cccc(CC(=O)N[C@H]2CCOC2=O)c1 [E5]
Activation [%] LasR [4]: 62% | Activation [%] RhlR [5]: 67% | Activation [%] QscR [6]: 34%

O=C(CCc1ccc([N+](=O)[O-])cc1)N[C@H]1CCOC1=O [E37]
Activation [%] LasR [4]: 22% | Activation [%] RhlR [5]: 69% | Activation [%] QscR [6]: 65%

O=C(CCc1cccc(Br)c1)N[C@H]1CCOC1=O [E31]
Activation [%] LasR [4]: 71% | Activation [%] RhlR [5]: 65% | Activation [%] QscR [6]: 58%

O=C(Cc1ccccc1F)N[C@H]1CCOC1=O [C4]
Activation [%] LasR [4]: −4% | Activation [%] RhlR [5]: 66% | Activation [%] QscR [6]: 0%

O=C(Cc1ccc(F)cc1)N[C@H]1CCOC1=O [C2]
Activation [%] LasR [4]: 12% | Activation [%] RhlR [5]: 71% | Activation [%] QscR [6]: 10%

O=C(CCc1ccc(Cl)cc1)N[C@H]1CCOC1=O [E30]
Activation [%] LasR [4]: 53% | Activation [%] RhlR [5]: 64% | Activation [%] QscR [6]: 79%

O=C(Cc1ccc(Br)cc1)N[C@@H]1CCOC1=O [B4]
Inhibition [%] LasR [1]: 15% | Inhibition [%] RhlR [2]: 66% | Inhibition [%] QsCR [3]: 37%

CSc1ccc(CCC(=O)N[C@H]2CCOC2=O)cc1 [E34]
Inhibition [%] LasR [1]: −52% | Inhibition [%] RhlR [2]: 62% | Inhibition [%] QsCR [3]: −190%

O=C(Cc1cccc(F)c1)N[C@H]1CCOC1=O [C3]
Activation [%] LasR [4]: −2% | Activation [%] RhlR [5]: 79% | Activation [%] QscR [6]: 13%

O=C(Cc1ccc2ccccc2c1)N[C@H]1CCOC1=O [E12]
Inhibition [%] LasR [1]: 81% | Inhibition [%] RhlR [2]: 77% | Inhibition [%] QsCR [3]: 60%

O=C(Cc1ccc(SC(F)(F)F)cc1)N[C@H]1CCOC1=O [E8]
Inhibition [%] LasR [1]: 23% | Inhibition [%] RhlR [2]: 65% | Inhibition [%] QsCR [3]: 40%

O=C(Cc1ccc(C(F)(F)F)cc1)N[C@H]1CCOC1=O [C20]
Inhibition [%] LasR [1]: 93% | Inhibition [%] RhlR [2]: 86% | Inhibition [%] QsCR [3]: 26%

Cc1cccc(CC(=O)N[C@H]2CCOC2=O)c1 [E1]
Activation [%] LasR [4]: 21% | Activation [%] RhlR [5]: 69% | Activation [%] QscR [6]: 29%

O=C(CC1CCCC1)N[C@H]1CCOC1=O [B12]
Activation [%] LasR [4]: −10% | Activation [%] RhlR [5]: 79% | Activation [%] QscR [6]: 12%

O=C(Cc1c(F)c(F)c(F)c(F)c1F)N[C@H]1CCOC1=O [C16]
Inhibition [%] LasR [1]: 76% | Inhibition [%] RhlR [2]: 66% | Inhibition [%] QsCR [3]: 74%

O=C(Cc1cccc(I)c1)N[C@H]1CCOC1=O [C11]
Activation [%] LasR [4]: 56% | Activation [%] RhlR [5]: 63% | Activation [%] QscR [6]: 34%

O=C(Cc1ccccc1I)N[C@H]1CCOC1=O [C12]
Activation [%] LasR [4]: −4% | Activation [%] RhlR [5]: 70% | Activation [%] QscR [6]: 5%

Cc1ccc(OCC(=O)N[C@H]2CCOC2=O)cc1 [E15]
Inhibition [%] LasR [1]: 84% | Inhibition [%] RhlR [2]: 75% | Inhibition [%] QsCR [3]: 33%

O=C(COc1ccc(Br)cc1)N[C@H]1CCOC1=O [E21]
Inhibition [%] LasR [1]: 31% | Inhibition [%] RhlR [2]: 66% | Inhibition [%] QsCR [3]: 20%

Cc1ccc(CC(=O)N[C@H]2CCOC2=O)cc1 [C19]
Inhibition [%] LasR [1]: 81% | Inhibition [%] RhlR [2]: 87% | Inhibition [%] QsCR [3]: 64%

O=C(Cc1ccc(I)cc1)N[C@H]1CCOC1=O [C10]
Inhibition [%] LasR [1]: 58% | Inhibition [%] RhlR [2]: 84% | Inhibition [%] QsCR [3]: −79%

O=C(Cc1cccc(Cl)c1)N[C@H]1CCOC1=O [C6]
Activation [%] LasR [4]: 30% | Activation [%] RhlR [5]: 82% | Activation [%] QscR [6]: 30%

O=C(Cc1cccc(Br)c1)N[C@H]1CCOC1=O [C8]
Activation [%] LasR [4]: 44% | Activation [%] RhlR [5]: 80% | Activation [%] QscR [6]: 33%

CSc1cccc(CC(=O)N[C@H]2CCOC2=O)c1 [E7]
Activation [%] LasR [4]: 32% | Activation [%] RhlR [5]: 70% | Activation [%] QscR [6]: 24%

CSc1ccc(CC(=O)N[C@H]2CCOC2=O)cc1 [E6]
Inhibition [%] LasR [1]: 85% | Inhibition [%] RhlR [2]: 78% | Inhibition [%] QsCR [3]: 24%

O=C(Cc1ccccc1)N[C@H]1CCOC1=O [C1]
Activation [%] LasR [4]: −3% | Activation [%] RhlR [5]: 84% | Activation [%] QscR [6]: 3%

C=CCCC(=O)N[C@H]1CCOC1=O [D8]
Activation [%] LasR [4]: 26% | Activation [%] RhlR [5]: 81% | Activation [%] QscR [6]: 13%
